pEC50: −log10 of the molar value. Where “and” joins values, the source holds several entries; their conditions need not be identical. Identical values can stand only once.
Molecular target: T1, Apelin receptor (Homo sapiens, UniProt P35414)
T1 sequence (P35414 whole entry): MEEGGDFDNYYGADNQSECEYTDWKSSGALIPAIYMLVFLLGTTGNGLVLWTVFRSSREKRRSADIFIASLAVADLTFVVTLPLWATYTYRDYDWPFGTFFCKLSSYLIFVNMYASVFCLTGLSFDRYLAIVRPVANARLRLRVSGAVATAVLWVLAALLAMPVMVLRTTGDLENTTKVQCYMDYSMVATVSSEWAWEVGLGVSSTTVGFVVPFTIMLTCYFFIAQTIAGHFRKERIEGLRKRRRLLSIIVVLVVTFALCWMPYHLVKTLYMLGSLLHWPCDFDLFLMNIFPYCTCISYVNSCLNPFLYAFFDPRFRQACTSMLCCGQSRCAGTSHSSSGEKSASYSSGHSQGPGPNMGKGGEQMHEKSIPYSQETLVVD
Assay: GTPγS Binding: The human APJ receptor was cloned by polymerase chain reaction and the gene encoding the receptor was subcloned in pFLAG-CMV-3 expression vector (Sigma, Saint Louis, Mo. USA) in-house at Amgen. A GTPγS binding assay was performed on membranes prepared from CHO cells stably expressing human APJ receptor. The optimum experimental conditions for the concentrations of GDP, MgCl2, and NaCl in the assay buffer were initially determined. The assay was performed in assay buffer [20 mM HEPES, pH 7.5, 5 mM MgCl2, and 0.1% (w/v) BSA with 200 mM NaCl, 3 μM GDP] and membranes expressing human APJ receptor/well along with WGA PS beads. The reaction was initiated by addition of 0.2 nM [35S]GTPγS in the absence or presence of various ligands and incubated at RT for 90 min. Nonspecific binding was determined in the presence of 100 μM GTPγS and was always less than 0.2% of total binding.

Row | SMILES | pEC50
1 | COc1cccc(OC)c1-n1c(NS(=O)(=O)[C@H](C)[C@@H](O)c2ccnc3c2OCCC3)nnc1-c1ccc(C)o1 (mixture of isomers) | 7.89
2 | COc1cc[nH]c(=O)c1-n1c(NS(=O)(=O)[C@@H](C)[C@H](C)c2ncc(C)cn2)nnc1-c1ccc(C)o1 (single isomer, unassigned; form 1) | 9.12
3 | COc1cccc(OC)c1-n1c(NS(=O)(=O)[C@@H](C)[C@@H](O)c2cccc3ccnn23)nnc1-c1ccc(C)o1 | 9.10 and 9.06
4 | COc1cccc(OC)c1-n1c(NS(=O)(=O)[C@@H](C)[C@H](O)c2cscn2)nnc1-c1ccc(C)o1 (mixture of isomers) | 8.92
5 | COc1cccc(OC)c1-n1c(NS(=O)(=O)C[C@@](C)(O)c2ncc(C#N)cn2)nnc1-c1ccc(C)o1 (mixture of isomers) | 9.19
6 | COc1cccc(OC)c1-n1c(NS(=O)(=O)CCc2ccc(F)cn2)nnc1-c1ccco1 | 7.92
7 | COc1cccc(OC)c1-n1c(NS(=O)(=O)[C@H](C)[C@@H](O)c2cnc(C)cn2)nnc1-c1ccc(C)o1 (single isomer, unassigned) | 8.82
8 | COC[C@H]1CCCC(=O)N1C[C@@H](C)S(=O)(=O)Nc1nnc(-c2ccc(C)o2)n1-c1c(OC)cccc1OC (single isomer, unassigned) | 9.32
9 | COc1cccc(OC)c1-n1c(NS(=O)(=O)[C@@H](C)[C@@H](O)c2ncc(F)cn2)nnc1-c1ccc(C)o1 (single isomer, unassigned) | 9.49
10 | COc1cccc(OC)c1-n1c(NS(=O)(=O)[C@@H]2C[C@@H](C(=O)N3CCC3)CN(c3ncc(F)cn3)C2)nnc1-c1ccc(C)o1 (mixture of isomers) | 9.49
11 | COc1cccc(OC)c1-n1c(NS(=O)(=O)[C@@H](C)[C@H](O)c2cc3ccccn3n2)nnc1-c1ccc(C)o1 (single isomer, unassigned) | 8.43
12 | COc1cccc(OC)c1-n1c(NS(=O)(=O)[C@@H]2C[C@H](c3ccc(F)cc3)CN(C(C)=O)C2)nnc1-c1ccc(C)o1 (single isomer, unassigned) | 8.96
13 | COc1cccc(OC)c1-n1c(NS(=O)(=O)[C@@H](C)Cc2ncc(Br)cn2)nnc1-c1ccco1 (single isomer, unassigned) | 9.51
14 | COc1cccc(OC)c1-n1c(NS(=O)(=O)[C@@H](C)Cc2ncc(F)cc2N2C[C@H](O)CC2=O)nnc1-c1ccco1 (mixture of isomers) | 9.21
15 | COc1cccc(OC)c1-n1c(NS(=O)(=O)[C@H](C)[C@@H](O)c2cc3ccccn3n2)nnc1-c1ccc(C)o1 (mixture of isomers) | 9.19
16 | COc1cccc(OC)c1-n1c(NS(=O)(=O)[C@H](C)[C@H](O)c2cscn2)nnc1-c1ccc(C)o1 (mixture of isomers) | 7.80
17 | COc1cccc(OC)c1-n1c(NS(=O)(=O)[C@H]2COC[C@@H]2c2ncc(F)cn2)nnc1-c1ccco1 (single isomer, unassigned) | 7.55
18 | COc1cccc(OC)c1-n1c(NS(=O)(=O)[C@H](C)Cc2ncc(F)cc2NC(C)=O)nnc1-c1ccco1 (single isomer, unassigned) | 9.68
19 | COc1cccc(OC)c1-n1c(NS(=O)(=O)[C@@H]2CCC[C@H]2c2ncc(F)cn2)nnc1-c1ccc(C)o1 (single isomer, unassigned) | 8.55
20 | COc1cccc(OC)c1-n1c(NS(=O)(=O)[C@H]2CCCN(c3ncc(F)cn3)C2)nnc1-c1ccc(C)o1 (single isomer, unassigned) | 8.49
21 | CCc1cnc([C@@H](C)[C@H](C)S(=O)(=O)Nc2nnc(-c3ccc(C)o3)n2-c2c(OC)cccc2OC)nc1 (single isomer, unassigned) | 8.47
22 | COc1cccc(OC)c1-n1c(NS(=O)(=O)[C@H]2CCCC[C@H]2c2ncc(F)cn2)nnc1-c1ccco1 (single isomer, unassigned) | 8.35
23 | COc1cccc(OC)c1-n1c(NS(=O)(=O)[C@H]2C[C@@H](O)CN(c3cc(C#N)ccn3)C2)nnc1-c1ccc(C)o1 (single isomer, unassigned) | 9.77
24 | COc1cc[nH]c(=O)c1-n1c(NS(=O)(=O)[C@@H](C)[C@H](C)c2ncc(F)cn2)nnc1-c1ccc(C)o1 (single isomer, unassigned; form 1) | 9.17
25 | COc1cccc(OC)c1-n1c(NS(=O)(=O)[C@@H](C)[C@@H](OCCO)c2ncc(C)cn2)nnc1-c1ccc(C)o1 (single isomer, unassigned) | 9.82
26 | COc1cc[nH]c(=O)c1-n1c(NS(=O)(=O)[C@@H](C)[C@H](C)c2ncc(C)cn2)nnc1-c1ccc(C)o1 (single isomer, unassigned; form 2) | 7.43
27 | COc1cccc(OC)c1-n1c(NS(=O)(=O)CCN2C(=O)CCC[C@@H]2C)nnc1-c1ccco1 (single isomer, unassigned) | 9.00
28 | COc1cccc(OC)c1-n1c(NS(=O)(=O)[C@@H](C)[C@@H](O)c2ncn3ccccc23)nnc1-c1ccc(C)o1 (single isomer, unassigned) | 8.85

Row | SMILES | pEC50
29 | COc1cccc(OC)c1-n1c(NS(=O)(=O)[C@@H]2CCCC[C@H]2c2ncc(F)cn2)nnc1-c1ccco1 (single isomer, unassigned) | 7.52
30 | COc1cccc(OC)c1-n1c(NS(=O)(=O)[C@@H](C)Cc2ncc(F)c3c2ncn3C)nnc1-c1ccco1 (single isomer, unassigned) | 9.01
31 | COc1cccc(OC)c1-n1c(NS(=O)(=O)[C@H]2C[C@@H](C(=O)N3CCC3)CN(c3ncc(F)cn3)C2)nnc1-c1ccc(C)o1 (mixture of isomers) | 9.46
32 | COc1cccc(OC)c1-n1c(NS(=O)(=O)C[C@H](O)c2ccc(F)cn2)nnc1-c1ccc(C)o1 (single isomer, unassigned) | 9.54
33 | COc1cc[nH]c(=O)c1-n1c(NS(=O)(=O)[C@@H](C)[C@H](C)c2ncc(F)cn2)nnc1-c1ccc(C)o1 (single isomer, unassigned; form 2) | 7.29
34 | COc1cccc(OC)c1-n1c(NS(=O)(=O)CCc2ncc(F)cn2)nnc1-c1ccco1 | 8.49
35 | COc1cccc(OC)c1-n1c(NS(=O)(=O)[C@@H]2C[C@@H](c3ccc(F)cc3)CN(C(C)=O)C2)nnc1-c1ccc(C)o1 (single isomer, unassigned) | 9.12
36 | COc1cccc(OC)c1-n1c(NS(=O)(=O)C[C@H](O)c2ccc(Cl)cc2S(C)(=O)=O)nnc1-c1ccc(C)o1 (single isomer, unassigned) | 10.05
37 | COc1cccc(OC)c1-n1c(NS(=O)(=O)[C@@H](C)[C@@H](O)c2cn3ccccc3n2)nnc1-c1ccc(C)o1 (single isomer, unassigned) | 9.00
38 | COC[C@@H]1CCCC(=O)N1CCS(=O)(=O)Nc1nnc(-c2ccco2)n1-c1c(OC)cccc1OC (single isomer, unassigned) | 8.68
39 | COc1cccc(OC)c1-n1c(NS(=O)(=O)[C@@H](C)[C@@H](O)c2cnc3ccccn23)nnc1-c1ccc(C)o1 (single isomer, unassigned) | 9.02
40 | COc1cccc(OC)c1-n1c(NS(=O)(=O)[C@H](C)Cc2ncc(F)cn2)nnc1-c1ccco1 (mixture of isomers) | 9.54
41 | COc1cccc(OC)c1-n1c(NS(=O)(=O)[C@@H](C)Cc2ncc(F)c3[nH]cnc23)nnc1-c1ccco1 (single isomer, unassigned) | 7.55
42 | COc1ncnc(OC)c1-n1c(NS(=O)(=O)[C@@H](C)Cc2ncc(F)cn2)nnc1-c1ccc(C)o1 (mixture of isomers) | 8.52
43 | COc1cccc(OC)c1-n1c(NS(=O)(=O)C[C@@H](C)c2ncc(C)cn2)nnc1-c1ccco1 (single isomer, unassigned) | 8.17
44 | COc1cccc(OC)c1-n1c(NS(=O)(=O)[C@@H](C)[C@@H](O)c2coc(C)n2)nnc1-c1ccc(C)o1 (single isomer, unassigned) | 8.08
45 | COCn1cnc2c(C[C@H](C)S(=O)(=O)Nc3nnc(-c4ccco4)n3-c3c(OC)cccc3OC)ncc(F)c21 (mixture of isomers) | 9.11
46 | COc1cccc(OC)c1-n1c(NS(=O)(=O)[C@@H](C)[C@@H](OC)c2cn3ccccc3n2)nnc1-c1ccc(C)o1 (mixture of isomers) | 9.02
47 | COc1cccc(OC)c1-n1c(NS(=O)(=O)[C@@H](C)[C@H](C)c2cnc(C)c[n+]2[O-])nnc1-c1ccc(C)o1 (mixture of isomers) | 9.85
48 | CCc1ccc(-c2nnc(NS(=O)(=O)[C@@H](C)Cc3ncc(F)cn3)n2-c2c(OC)cccc2OC)o1 (mixture of isomers) | 9.89
49 | COc1cccc(OC)c1-n1c(NS(=O)(=O)CCc2ncc(Cl)cc2C2=CCN(C(C)=O)CC2)nnc1-c1ccco1 | 9.49
50 | COc1cccc(OC)c1-n1c(NS(=O)(=O)[C@@H](C)[C@H](OC)c2ccc(C#N)cc2C#N)nnc1-c1ccc(C)o1 (mixture of isomers) | 9.68
51 | COc1cccc(OC)c1-n1c(NS(=O)(=O)C[C@H](O)c2ccc(F)cn2)nnc1-c1ccc(C)o1 (mixture of isomers) | 9.77
52 | COc1cccc(OC)c1-n1c(NS(=O)(=O)CCN2C(=O)N(C)CC[C@H]2C)nnc1-c1ccco1 (single isomer, unassigned) | 9.15
53 | COc1cnc([C@@H](O)[C@H](C)S(=O)(=O)Nc2nnc(-c3ccc(C)o3)n2-c2c(OC)cccc2OC)cn1 (mixture of isomers) | 9.60
54 | COc1cccc(OC)c1-n1c(NS(=O)(=O)[C@H]2CCC[C@@H]2c2ncc(F)cn2)nnc1-c1ccc(C)o1 (mixture of isomers) | 8.70
55 | Cc1ccc(-c2nnc(NS(=O)(=O)[C@@H](C)Cc3ncc(F)cn3)n2C2CCCC2)o1 (mixture of isomers) | 6.57

Source: ChEMBL document CHEMBL5727878, “Triazole furan compounds as agonists of the APJ receptor” (2020)
